Results from patent US9308244B2, “Combination therapy using active immunotherapy” (immatics Biotechnologies GmbH, priority 2007, dated 2016).
“Also recorded” adds a separate entry of the source. Like-named read-outs stand apart in the source and are kept apart here.

How the values were obtained:
A498 and RCC068 = experiment: Long-term culture of renal cell carcinoma cell lines in the presence of TKIs; format: cell-based, human; settings: 13 μM sorafenib, 14 d time point, cells harvested after 10 days
Method: The human renal cell carcinoma cell lines A498 and RCC068 were cultured in RPMI medium (5% FCS (Biochrom, Berlin, Germany), 5% HS (PromoCell, Heidelberg, Germany)). […] For each time point 3 flasks of each cell line were prepared by containing either 0.1% DMSO alone as a control, 13 μM sorafenib (8.3 μg/ml sorafenib tosylate)+0.1% DMSO, or 250 nM sunitinib (133 ng/ml sunitinib malate).
A normal medium control sample containing neither DMSO nor TKIs was harvested at 1 h for each cell line.

[1] = HPLC quantification of TKI plasma levels in mouse models; format: in vivo; settings: oral dosing
Method: The proteins were precipitated with 40 μl 100% acetonitril (Acros, Geel, Belgium), centrifuged and filtered through a 0.2 μm PVDF filter. 10 μl was directly injected to the HPLC system.
The HPLC system consisted of a Binary HPLC pump (Shimadzu LC10aVP), a Shimadzu SIL-10aVP autosampler, a Shimadzu CTO-10asVP column oven and a Shimadzu SPD10aVP detector. Data acquisition and analysis was performed using the Shimadzu Class-VP 7.3 software. Chromatographic separation was carried out on a reverse phase C18 column (Reprosil Pur ODS-3μ, 60×2 mm). To protect the analytical column a guard column has been used (Reprosil Pur ODS-5μ, 10×2 mm). Eluent A consisted of water (LCMS grade, Acros, Geel, Belgium), modified by 0.1% formic acid (Merck, Darmstadt, Germany) and eluent B was 80% acetonitril (Acros, Geel, Belgium) with 0.1% formic acid (Merck, Darmstadt, Germany).
The following gradient was used: 5 min 25% eluent B, 15 min 62.5% eluent B, 6 min 80% eluent B and 5 min 80% eluent B. The temperature of the autosampler was kept at 4° C. The temperature of the column was maintained at 30° C. The detection wavelength was set at 400 nm, the injection volume was 10 μl. The column was equilibrated with the mobile phase at a flow rate 0.5 ml/min.
For Sorafenib analysis, 10 μl of 50% acetonitril (Acros, Geel, Belgium) was added to 50 serum or medium in 0.5 ml PCR tubes and mixed for 10 seconds. […]

[2] = tested on: OVA-001 specific CD8+ T-cells; format: in vivo, C57BL/6 mice; settings: continuous treatment; for OVA-001 specific CD8+ T-cells, mean: OVA-001 immunized; for Immune response towards OVA-001 compared with vehicle treated controls (in words): both sorafenib dosages, high-dose (80 mg/kg bw) sunitinib, 80 mg/kg
[3] = tested on: CD4+ CD25+ Tregs, T cells, B cells, splenocytes; experiment: Immune cell populations in spleen and PBMCs of TKI-treated mice; format: in vivo, C57BL/6 mice; settings: 4 weeks treatment
[4] = mouse, in vivo
Method: Female C57BL/6 mice (20-25 g, Harlan Winkelmann GmbH, Borchen, Germany) were used for all experiments described in this section. Animals were kept in the animal facility of the Dept. of Immunology at the University of Tuebingen. Animals were cared for by trained animal keepers and health status of animals was supervised by the veterinaries of the University of Tübingen. Feeding with drug was also performed in part by the local animal keepers after special training. All animals were supplied with water and food ad libitum. The described experiments were performed according to procedure no. IM1/06 approved by the Regierungsprasidium Tuebingen.
A liquid, viscous vehicle composed of 30% (w/v) Cremophor EL (Sigma, Deisenhofen, Germany), 30% (w/v) PEG 400 (Sigma, Deisenhofen, Germany), 10% ethanol p.a., 10% glucose was used. Sunitinib and sorafenib were suspended in vehicle according to the planned dosages in a way that […] body weight had to be applied to all mice, according to approx. 50 μl of suspension. Feasible aliquots were prepared from suspensions and from vehicle and stored until use at −20° C. in the dark. Thawed substance was stored at 4° C. and used within the next three days. Animals were weighed before start of treatment and thereafter weekly. The deduced dosage was applied daily using a 1 ml syringe with gavage into the backward cavity of the mouth of the animal without anesthesia. Drug delivery into blood plasma was controlled as described in example 1.
1) Immunization under continuous treatment with tyrosine kinase inhibitors. Pretreatment phase was two weeks (see FIG. 5A). […]
3) The experimental design was identical to a) Beside negative and positive control groups, groups treated with 60 mg/kg body weight sorafenib, and 20 and 40 mg/kg body weight sunitinib were included (6 mice per group). For spleen cells, CD4, Tregs, CD8 cells, and B cells were assessed, for PBMCs CD4, CD8, B cells and Tregs were analyzed.

[5] = tested on: OVA-001 specific CD8+ T-cells; format: in vivo, C57BL/6 mice
[6] = tested on: HLA-A*02+ PBMCs (CD4+ and CD8+ effector cells); settings: absence of target cells or autologous target cells
Method: Two fresh buffy coat (HLA-A*02+ and HLA-A*02−) were obtained from the Katharinenhospital Stuttgart. PBMCs were isolated by standard density gradient isolation and incubated overnight in T-cell medium (TCM) for human in vitro priming as in WP03 #4. Ca2+ and Mg2+ free PBS (Cambrex) washed HLA-A*02+ PBMCs were labeled at 1×10^7 cells/ml with 1 μM CFSE (Fluka, Buchs, Germany) at 37° C. for 4 minutes. Labeling was stopped by adding the same volume heat inactivated FCS (Invitrogen) and labeled cells were washed in TCM. Irradiation of target or feeder cells, if indicated, was performed at 33 Gy using a 1000 Elite gammacell (MDS Nordion, Ottawa, Canada). Stock solutions of sorafenib tosylate and sunitinib malate were prepared in DMSO (Merck, Darmstadt, Germany) and frozen aliquoted at −80° C. Mixed lymphocyte reactions were performed by coculturing 2×10^5 CFSE labeled effector plus 2×10^5 irradiated target cells as indicated per well of 96 well round bottom plates in 200 μl TCM in the presence of indicated concentrations of sorafenib, sunitinib or DMSO at 37° C. and 5% CO2 (day 1). On day 4, 100 μl supernatant was removed and 100 μl TCM supplemented with the original concentration of TKIs was added. […] Cells were washed, fixed in PFEA containing 1% formaldehyde (Fluka) and analyzed on a FACSCalibur (BD). […]

human CD8+ T-cells = experiment: Artificial APC (pMHC/anti-CD28 bead) priming and expansion of isolated human CD8+ T-cells, MLA-001 tetramer readout; format: cell-based; settings: three stimulation cycles, high and low density pMHC, absence of natural antigen presenting cells

CNC(=O)c1cc(Oc2ccc(NC(=O)Nc3ccc(Cl)c(C(F)(F)F)c3)cc2)ccn1 [Sorafenib, 4-(4-{3-[4-Chloro-3-(trifluoromethyl)phenyl]ureido}phenoxy)-N-methylpyrid-ine-2-carboxamide]
Cell growth in culture (A498 and RCC068): prevented cell growth | Bioavailability / plasma levels at the used doses [1]: confirmed to reach plasma levels shown by others to be effective in tumor growth inhibition | OVA-001 specific CD8+ T-cells, mean ([2]; 15 mg/kg bw, n=4): 0.72% | OVA-001 specific CD8+ T-cells, mean ([2]; 60 mg/kg bw, n=12): 1.81% | Immune response towards OVA-001 compared with vehicle treated controls (in words) [2]: reduced specific T-cell responses | Immune response towards OVA-001 compared with vehicle treated controls (in words) ([2]; listed as sorafenib): reduced immune response | Number of CD4+ CD25+ Tregs among total CD4+ cells in PBMCs [3]: unchanged or even slightly elevated | Toxic side effects [4]: without any observed toxic side effects | Reversibility of the immunosuppressive influence after discontinuation of treatment ([5]; mouse, in vivo): rapidly reversed | Numbers of OVA-001-specific T-cells ([5]; treatment stopped 48 h before first immunization, 80 mg/kg bw sunitinib, both sorafenib dosages, differences not significant): Reduced numbers | Baseline proliferation of effector cells [6]: did not increase | Priming and expansion of MLA-001 specific CD8+ T-cells (% tetramer+ among CD8+ lymphocytes, total number per well) (human CD8+ T-cells): no concentration-dependent influence; also recorded: not altered
